According to patent publication US20260014147A1, “STAT6 DEGRADERS” (Gilead Sciences, Inc., priority 2024, published 2026):

Target: T1, STAT6 (endogenous, HiBiT-tagged) in HeLa LgBiT clone 4.14 cells (Homo sapiens, UniProt P42226)
T1 construct: These cells express endogenous STAT6; host or cells: HeLa LgBiT clone 4.14
T1 sequence (P42226 1-847): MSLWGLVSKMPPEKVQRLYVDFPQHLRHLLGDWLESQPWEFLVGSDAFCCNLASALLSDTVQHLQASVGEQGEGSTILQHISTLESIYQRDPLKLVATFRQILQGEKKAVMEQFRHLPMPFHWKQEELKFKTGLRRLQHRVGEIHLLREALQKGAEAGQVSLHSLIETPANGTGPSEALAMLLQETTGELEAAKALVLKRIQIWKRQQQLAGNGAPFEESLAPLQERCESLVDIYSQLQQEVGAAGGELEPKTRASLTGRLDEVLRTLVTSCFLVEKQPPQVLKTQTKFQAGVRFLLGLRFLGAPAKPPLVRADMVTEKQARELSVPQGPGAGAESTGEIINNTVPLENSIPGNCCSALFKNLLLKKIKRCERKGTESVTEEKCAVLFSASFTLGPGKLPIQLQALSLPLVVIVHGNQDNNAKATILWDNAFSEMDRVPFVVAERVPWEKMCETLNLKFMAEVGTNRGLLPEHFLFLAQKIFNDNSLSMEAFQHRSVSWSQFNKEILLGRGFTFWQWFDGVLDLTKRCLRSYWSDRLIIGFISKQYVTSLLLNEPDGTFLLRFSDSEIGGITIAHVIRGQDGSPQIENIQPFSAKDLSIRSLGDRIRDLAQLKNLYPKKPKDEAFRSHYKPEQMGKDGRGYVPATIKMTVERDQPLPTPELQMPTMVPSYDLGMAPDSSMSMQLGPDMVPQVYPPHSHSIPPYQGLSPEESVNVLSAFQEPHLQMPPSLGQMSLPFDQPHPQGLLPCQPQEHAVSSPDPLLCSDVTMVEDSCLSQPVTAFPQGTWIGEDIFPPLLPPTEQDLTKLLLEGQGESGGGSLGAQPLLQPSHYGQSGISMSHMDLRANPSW
Test: STAT6 Degrader Assay (HiBiT based, HeLa LgBiT clone 4.14 cells, luminescence, DC50)
Format: cell-based
Conditions: geometric mean; for Emax: Emax provided for test compounds with <80% Emax (and 2c15), read-out: STAT6 degradation Emax; for DC50: DC50 provided for test compounds with >80% Emax, read-out: STAT6 degradation DC50
Protocol: This was a HiBit based assay. A HeLa cell line stably transfected with a small protein, LgBit (Large Bit) was obtained from Promega. These cells express endogenous STAT6. A small 11 amino acid gene sequence (HiBiT) was inserted in the STAT6 gene using CRISPR technology. Once STAT6 protein is expressed in the cells, the HiBiT sequence will bind the LgBit in the cells resulting in a functional NanoBiT protein, giving a luminescent tag to STAT6. Single cell clones were prepared and the clone 4.14 was selected for the assay based on that clone showing high luminescence, high STAT6 phosphorylation upon stimulation with IL-4, and inhibition of luminescence when cells were treated with STAT6 siRNA. HeLa LgBiT clone 4.14 cells were suspended in DMEM with 10% FCS, 1% Pen/Strep, Na-pyrovate and Hygromycin B, at a concentration of […]. 5000 cells were added pr well of a 384 well plate and 20 nL of compound was added by Echo® liquid handler. NN6394A (terfenadine, a toxic compound) was added to control wells at 50 µM concentration to establish the assay window. In these wells the cells are dead which equals 100% degradation of STAT6. After 4-24 h of incubation at 37° C. under 5% CO2/95% air, […] substrate (Nano-GLO®) was added to the wells and the plates were centrifuged and incubated for 0.5 h. The luminescence in the wells as a measure of non-degraded STAT6 was measured in a plate reader (BMG Pherastar FSX). The dose-response curves for Examples 2a2, 2t1, 2 h3, and 2r1 are shown below (where percent degradation is plotted vs. test compound concentration in M on a log-scale).

Emax [%]	DC50 [nM]	Structure (SMILES)
80 to 90	–	Cc1cc(C(=O)N2CCC(CN3CCN(c4ccc(NC5CCC(=O)NC5=O)cc4F)CC3)CC2)cc(C)c1C1=CCN(Cc2cc3c(-c4ccc(N)nc4)ccnc3n2C)CC1 (stereo not shown) [Example 2c15, 3-((4-(4-((1-(4-(1-((4-(6-aminopyridin-3-yl)-1-methyl-1H-pyrrolo[2,3-b]pyridin-2-yl)methyl)-1,2,3,6-tetrahydropyridin-4-yl)-3,5-dimethylbenzoyl)piperidin-4-yl)methyl)piperazin-1-yl)-3-fluorophenyl)amino)piperidine-2,6-dione]
< 20	–	Cn1c(CN2CC=C(c3ccc(C(=O)N4CCn5nc(CN6CCC(c7ccc(NC8CCC(=O)NC8=O)cc7F)CC6)cc5C4)cn3)CC2)cc2c(-c3ccc(N)nc3)ccnc21 (stereo not shown) [Example 2c37, 3-((4-(1-((5-(1′-((4-(6-aminopyridin-3-yl)-1-methyl-1H-pyrrolo[2,3-b]pyridin-2-yl)methyl)-1′, 2′, 3′, 6′-tetrahydro-[2,4′-bipyridine]-5-carbonyl)-4,5,6,7-tetrahydropyrazolo[1,5-a]pyrazin-2-yl)methyl)piperidin-4-yl)-3-fluorophenyl)amino)piperidine-2,6-dione]
< 20	–	Cn1c(CN2CC=C(c3ccc(C(=O)N4CCn5nc(CN6CCC(c7ccc(NC8CCC(=O)NC8=O)cc7F)CC6)cc5C4)cn3)CC2)cc2c(-c3ccc(N)nn3)ccnc21 (stereo not shown) [Example 2c38, 3-((4-(1-((5-(1′-((4-(6-aminopyridazin-3-yl)-1-methyl-1H-pyrrolo[2,3-b]pyridin-2-yl)methyl)-1′, 2′, 3′, 6′-tetrahydro-[2,4′-bipyridine]-5-carbonyl)-4,5,6,7-tetrahydropyrazolo[1,5-a]pyrazin-2-yl)methyl)piperidin-4-yl)-3-fluorophenyl)amino)piperidine-2,6-dione]
–	0.7	COc1cc(C2CCN(Cc3cc4n(n3)CCN(C(=O)c3ccc(C5CCN([C@@H](C)c6cc7c(-c8ccc(N)nc8)ccnc7n6C)CC5)cc3)C4)CC2)ccc1NC1CCC(=O)NC1=O (stereo partly drawn) [Example 2c44, 3-((4-(1-((5-(4-(1-((S)-1-(4-(6-aminopyridin-3-yl)-1-methyl-1H-pyrrolo[2,3-b]pyridin-2-yl)ethyl)piperidin-4-yl)benzoyl)-4,5,6,7-tetrahydropyrazolo[1,5-a]pyrazin-2-yl)methyl)piperidin-4-yl)-2-methoxyphenyl)amino)piperidine-2,6-dione]
< 20	–	Cc1cc(C(=O)N2CCn3nc(CN4CCC(c5ccc(NC6CCC(=O)NC6=O)cc5F)CC4)cc3C2)cnc1C1=CCN(Cc2cc3c(-c4ccc(N)nn4)ccnc3n2C)CC1 (stereo not shown) [Example 2c48, 3-((4-(1-((5-(1′-((4-(6-aminopyridazin-3-yl)-1-methyl-1H-pyrrolo[2,3-b]pyridin-2-yl)methyl)-3-methyl-1′, 2′, 3′, 6′-tetrahydro-[2,4′-bipyridine]-5-carbonyl)-4,5,6,7-tetrahydropyrazolo[1,5-a]pyrazin-2-yl)methyl)piperidin-4-yl)-3-fluorophenyl)amino)piperidine-2,6-dione]
< 20	–	Cn1c(CN2CCC(c3ccc(C(=O)N4CCC(CN5CCN(C(=O)c6ccc(NC7CCC(=O)NC7=O)cc6F)CC5)CC4)cc3)CC2)cc2c(-c3ccc(N)nc3)ccnc21 (stereo not shown) [Example 2e2, 3-((4-(4-((1-(4-(1-((4-(6-aminopyridin-3-yl)-1-methyl-1H-pyrrolo[2,3-b]pyridin-2-yl)methyl)-piperidin-4-yl)benzoyl)piperidin-4-yl)methyl)piperazine-1-carbonyl)-3-fluorophenyl)amino)piperidine-2,6-dione]
20 to 30	–	C[C@H]1CN(c2ccc(NC3CCC(=O)NC3=O)cc2F)CCN1CC1CCN(C(=O)c2ccc(C3CCN(Cc4cc5c(-c6ccc(N)nc6)ccnc5n4C)CC3)cc2)CC1 (stereo partly drawn) [Example 2f3, 3-((4-((S)-4-((1-(4-(1-((4-(6-aminopyridin-3-yl)-1-methyl-1H-pyrrolo[2,3-b]pyridin-2-yl)methyl)piperidin-4-yl)benzoyl)piperidin-4-yl)methyl)-3-methylpiperazin-1-yl)-3-fluorophenyl)amino)-piperidine-2,6-dione]

More lines, now with the values behind:

Structure (SMILES)	Emax [%]	DC50 [nM]
C[C@@H](c1cc2c(-c3ccc4[nH]ncc4c3)ccnc2n1C)N1CCC(c2ccc(C(=O)N3CCC(CN4CCN(c5ccc(NC6CCC(=O)NC6=O)cc5F)CC4)CC3)cc2)CC1 (stereo partly drawn) [Example 2c17, 3-((4-(4-((1-(4-(1-((S)-1-(4-(1H-indazol-5-yl)-1-methyl-1H-pyrrolo[2,3-b]pyridin-2-yl)-ethyl)piperidin-4-yl)benzoyl)piperidin-4-yl)methyl)piperazin-1-yl)-3-fluorophenyl)amino)piperidine-2,6-dione]	–	2.7
Cn1c(CN2CCC(c3ccc(C(=O)N4CCC(CN5CCN(c6c(F)cc(NC7CCC(=O)NC7=O)cc6F)CC5)CC4)cc3)CC2)cc2c(-c3ccc4[nH]ncc4c3)ccnc21 (stereo not shown) [Example 2c34, 3-((4-(4-((1-(4-(1-((4-(1H-indazol-5-yl)-1-methyl-1H-pyrrolo[2,3-b]pyridin-2-yl)methyl)-piperidin-4-yl)benzoyl)piperidin-4-yl)methyl)piperazin-1-yl)-3,5-difluorophenyl)amino)piperidine-2,6-dione]	70 to 80	–
Cn1c(CN2CCN(c3ccc(C(=O)N4CCC(CN5CCN(c6ccc(NC7CCC(=O)NC7=O)cc6F)CC5)CC4)cc3)CC2)cc2c(-c3ccc(N)nc3)ccnc21 (stereo not shown) [Example 2c39, 3-((4-(4-((1-(4-(4-((4-(6-aminopyridin-3-yl)-1-methyl-1H-pyrrolo[2,3-b]pyridin-2-yl)methyl)piperazin-1-yl)benzoyl)piperidin-4-yl)methyl)piperazin-1-yl)-3-fluorophenyl)amino)piperidine-2,6-dione]	< 20	–
COCc1nc2cc(-c3ccnc4c3cc(CN3CCC(c5ccc(C(=O)N6CCC(CN7CCN(Cc8ccc(-n9cc(N%10CCC(=O)NC%10=O)nn9)cc8)CC7)CC6)cc5)CC3)n4C)ccc2[nH]1 [Example 2c56, 1-(1-(4-((4-((1-(4-(1-((4-(2-(methoxymethyl)-1H-benzo[d]imidazol-5-yl)-1-methyl-1H-pyrrolo[2,3-b]pyridin-2-yl)methyl)piperidin-4-yl)benzoyl)piperidin-4-yl)methyl)piperazin-1-yl)methyl)-phenyl)-1H-1,2,3-triazol-4-yl) dihydropyrimidine-2,4 (1H,3H)-dione]	< 20	–
CNc1ccc(-c2ccnc3c2cc([C@@H](C)N2CC=C(c4c(C)cc(C(=O)N5CCC(CCn6cc(-c7ccc(NC8CCC(=O)NC8=O)cc7)nn6)CC5)cc4F)CC2)n3C)cn1 (stereo partly drawn) [Example 2c57, 3-((4-(1-(2-(1-(3-fluoro-5-methyl-4-(1-((R)-1-(1-methyl-4-(6-(methylamino)pyridin-3-yl)-1H-pyrrolo[2,3-b]pyridin-2-yl)ethyl)-1,2,3,6-tetrahydropyridin-4-yl)benzoyl)piperidin-4-yl)ethyl)-1H-1,2,3-triazol-4-yl)phenyl)amino)piperidine-2,6-dione]	< 20	–
Cn1c(CN2CCC(c3ccc(C(=O)N4CCC(CN5CCN(c6ccc(C(=O)NC7CCC(=O)NC7=O)nn6)CC5)CC4)cc3)CC2)cc2c(-c3ccc4[nH]ncc4c3)ccnc21 (stereo not shown) [Example 2d1, 6-(4-((1-(4-(1-((4-(1H-indazol-5-yl)-1-methyl-1H-pyrrolo[2,3-b]pyridin-2-yl)methyl)-piperidin-4-yl)benzoyl)piperidin-4-yl)methyl)piperazin-1-yl)-N-(2,6-dioxopiperidin-3-yl) pyridazine-3-carboxamide]	50 to 60	–
